# In patent US4275248A, “Preparation of 2,4,6-triisopropylphenol” (UOP Inc., priority 1980, dated 1981):
# “Also recorded” adds a separate entry of the source. Read-outs that look alike come from different tables or passages of the source.
# How the values were obtained:
# [1] = Induction period prior to oxidation, ANSI/ASTM method D525-74, gasoline sample A
# Protocol: (§1) The effectiveness of materials as antioxidants in liquid petroleum products was determined by measurement of the induction period prior to oxidation, ANSI/ASTM method D525-74, and by measurement of gum formation under accelerated storage conditions, ANSI/ASTM method D873-74. The liquid petroleum product was either a base washed riser-cracked gasoline from British Petroleum Co., Canada (sample A) or a base washed, blended full range gasoline from Union Oil (sample B). As a comparison, there is included an antioxidant of wide commercial utility which consists of 2,6-di-t-butylphenol (75%), 2,4,6-tri-t-butylphenol (15%) and 2,t-butylphenol (10%) and which we designate by the symbol E733.
# [2] = Induction period prior to oxidation, ANSI/ASTM method D525-74, gasoline sample B; details: runs 4-7 (no additive: 80-105)
# Protocol: as §1
# [3] = Gum formation under accelerated storage conditions, ANSI/ASTM method D873-74, gasoline sample A
# Protocol: as §1
# [4] = Gum formation under accelerated storage conditions, ANSI/ASTM method D873-74, gasoline sample B; details: runs 4-7 (no additive: 320)
# Protocol: as §1
# [5] = Oxidative stability of gasoline / petroleum distillates, overall antioxidant effectiveness in words; details: for effectiveness in increasing the induction period: versus commercial product commonly used to stabilize gasoline
# Text: Among the products which may be prepared by this invention, the di- and tri-isopropylated hydroxy substituted aromatic compounds are effective antioxidants for stabilizing various petroleum distillates. Examples of the latter include home heating fuel, gasoline, diesel fuel, aviaton fuel, kerosene, and lubricating oils. […] One way of determining the stabilizing effect of additives is to compare the induction period to oxidation of a composton differing only in the nature of the additive present. […] The di- and tri-isopropylated phenols of the present invention may be used as antioxidants at concentrations from about 5 parts per million by weight to about 5% by weight, and preferably from about 5 to about 500 parts per million by weight when used in fuel oils.
# as §1
# [6] = 20 ppm, runs 4-7 (no additive: 125-130)
# [7] = 35 ppm, runs 4-7 (no additive: 125-130)
# [8] = 50 ppm, runs 4-7 (no additive: 125-130)
# [9] = 35 ppm, runs 4-7 (no additive: 180)
# [10] = 50 ppm, runs 4-7 (no additive: 180)
SMILES,"Induction Period [1, 6] [min]","Induction Period [1, 7] [min]","Induction Period [1, 8] [min]",Induction Period ([2]; 20 ppm) [min],Induction Period ([2]; 35 ppm) [min],Induction Period ([2]; 50 ppm) [min],"Accelerated Gum [3, 9]","Accelerated Gum [3, 10]",Accelerated Gum ([4]; 35 ppm) [mg/100 ml],Accelerated Gum ([4]; 50 ppm) [mg/100 ml],Accelerated Gum ([4]; 20 ppm) [mg/100 ml],antioxidant effectiveness for stabilizing petroleum distillates [5],imparting oxidative stability to the gasolines tested [5],effectiveness in increasing the induction period [5],"Induction Period ([1]; 20 ppm, runs 1-3 (no additive: 170)) [min]","Induction Period ([1]; 40 ppm, runs 1-3 (no additive: 170)) [min]","Accelerated Gum ([3]; 20 ppm, runs 1-3 (no additive: 45)) [mg/100 ml]","Accelerated Gum ([3]; 40 ppm, runs 1-3 (no additive: 45)) [mg/100 ml]",antioxidant effectiveness for stabilizing petroleum distillates ([5]; general statement in words),"imparting oxidative stability to the gasolines tested ([5]; versus commercial standard, measured by increase in induction period and decrease in gum formation)"
"CC(C)c1cccc(C(C)C)c1O [2,6-diisopropylphenol]",200,240,305,195,250,310,35 mg/100 ml,9 mg/100 ml,4.5,3.5,,,,,,,,,,
"CC(C)c1cc(C(C)C)c(O)c(C(C)C)c1 [2,4,6-triisopropylphenol]",245,310,375,270,350,420,7-8 mg/100 ml,7-8 mg/100 ml,2.5,2.5,13,particularly effective,substantially more effective than an accepted commercial standard,substantially more effective in increasing the induction period,,,,,,
"Cc1cc(C(C)C)c(O)c(C(C)C)c1 [2,6-diisopropyl-4-methylphenol]",,,,,,,,,,,,,,substantially more effective in increasing the induction period,340,475,5,3,particularly effective; also recorded: particularly desirable antioxidant properties,substantially more effective than an accepted commercial standard
